Laboratory results as given in paper PMC3404106, “Pharmacology of DB844, an Orally Active aza Analogue of Pafuramidine, in a Monkey Model of Second Stage Human African Trypanosomiasis” (PLoS Neglected Tropical Diseases, 2012).
“Also recorded” adds a separate entry of the source.

Columns and labels:
[1] = Pharmacokinetics (plasma and CSF) in infected monkeys after last DB844 dose; settings: for Tmax: po
[2] = tested on: Trypanosoma brucei rhodesiense KETRI 2537; set-up: method as in earlier work; settings: treatment initiated at 28 DPI; unpublished TRC-KARI data; cited from earlier work
2nd stage HAT = tested on: 2nd stage HAT; set-up: method as in PMID 19620327, PMID 19064893; settings: cited from earlier work
[3] = Metabolism of DB844 in vervet monkey liver microsomes; type: in vitro ADME
Method: The metabolism of DB844 was investigated using liver microsomes, prepared from a male vervet monkey by XenoTech, LLC (Lenexa, KS), in the presence of NADPH as described previously with modifications. Briefly, incubation mixtures (1 ml at pH7.4, in triplicate) contained 10 µM DB844 and 0.2 mg/ml monkey liver microsomes. After a 5-min equilibration period at 37°C, reactions were initiated with the addition of NADPH. Aliquots (50 µl) of the reaction mixtures were removed at 0, 5, 10, 15, 30, 60, 90, and 120 min and mixed with 25 µl of ice-cold acetonitrile. The mixtures were centrifuged (10,000×g for 5 min at 4°C) and the supernatants were analyzed by HPLC/UV using the same method as previously described for DB289 [22]. […] DB844 and metabolites were quantified using a single-concentration calibration curve generated using synthetic standards.

[4] = set-up: method as in PMID 17360833; settings: dosed orally to cynomolgus monkey at 5 mg/kg; cited from earlier work
[5] = set-up: method as in PMID 20721830; settings: extended phase I clinical trial, 14 day dose regimen of 100 mg bid; cited from earlier work

In the case of `N=C(N)c1ccc(-c2ccc(-c3ccc(C(=N)N)cn3)o2)cc1` [DB820], the “sporadic CSF concentration” value ([1]; 2/7 monkeys (571 and 624), between 24 and 96 h post dose) is reported as < 4 nM, the “detection in the CSF” value ([1]; after last dose of DB844 6 mg/kg×14 days, samples at 1, 24, 96, 168 h and weekly) is reported as “not detected” and the concentration at 28 days ([1]; monkey, in vivo, 6 mg/kg) is reported as 35 nM. It also gave a Tmax ([1]; monkey, in vivo, 6 mg/kg, Tmax, plasma, after the 14th oral dose of DB844 at 6 mg/kg, n = 7, median, analyte = label) of 4.08 h, a Tmax ([1]; monkey, in vivo, 6 mg/kg, time of peak plasma concentration, after the last (14th) dose of DB844 at 6 mg/kg, analyte = label) of 4 h and an AUClast ([1]; plasma, after the 14th oral dose of DB844 at 6 mg/kg, n = 7, geometric mean, analyte = label) of 1400 nmol·days/L.

In the case of `N=C(N)c1ccc(OCCCCCOc2ccc(C(=N)N)cc2)cc1` [pentamidine], the “cure in the vervet monkey model of CNS stage HAT” value [2] is given as “non-curative; also recorded: did not cure any monkey” and the “cure against 2nd stage HAT in animal models” value (2nd stage HAT) is given as “did not achieve cure”.

For `CO/N=C(/N)c1ccc(-c2ccc(-c3ccc(/C(N)=N/O)cc3)o2)nc1` [M1B], the “relative metabolite concentration in the drug/liver microsome mixture” value [3] was “highest concentrations during the initial 20 minutes”.

In the case of `CONC(=N)c1ccc(-c2ccc(-c3ccc(C(=N)NOC)cc3)o2)cc1` [pafuramidine, 2,5-bis(4-amidinophenyl)furan-bis-O-methylamidoxime], the “cure in the vervet monkey model of CNS stage HAT” value [2] is given as “non-curative; also recorded: did not cure any monkey”, the “cure against 2nd stage HAT in animal models” value (2nd stage HAT) is given as “did not achieve cure” and the Cmax [4] is given as 30 to 35 nM. For the same compound, the “subjects who developed delayed renal insufficiency” value [5] was 6%.
